Legend:
[1] = Photolysis of Pt complexes in water under UV, by RP-HPLC; format: physicochemical; conditions: 1 mM in water, 365 nm, 9.8 mW/cm^2, 10 min
Experimental: The photolysis of Pt complexes in test tubes was examined by reversed-phase high performance liquid chromatography (RP-HPLC). 1 mM Pt complexes were dissolved in water. Then the mixed solution was irradiated with UV light (365 nm, 9.8 mW/cm^2) for 10 min at room temperature, and the solution was examined by HPLC. The percentage of remained Pt complexes was obtained from the ratio of the peak area of Pt complexes upon irradiation to that of the intact Pt complexes.

[2] = Dark stability of cisPt(IV)-1, by HPLC; format: physicochemical; conditions: in the dark for about 30 min, free or mixed with radical spin traps
Experimental: 1 mM cisPt(IV)-1 (Pt(IV) complex of Formula (IIa)) and cisplatin in water was mixed with 1 or 10 mM DMPO or TEMPO. The mixed solution was irradiated with UV or kept in the dark for 10 min. The solution was analyzed by HPLC. The Pt(I) adduct products were characterized by ESI-HRMS, and the acetate radical adduct was separated and characterized by proton NMR. For the study of photolysis rate, the solution was irradiated with UV (365 nm, 9.8 mW/cm^2) for 0.5, 1, 2, 3, 4, 5 and 10 min, with or without the radical spin trap and analyzed by HPLC. For the study of dark stability, the solution was incubated at room temperature in the dark for 30 min before examined by HPLC.

SMILES | percentage of intact Pt complex remaining upon irradiation [1] [%] | stability in the dark [2]
O=C1[O][Pt]2([NH][C@@H]3CCCC[C@H]3[NH]2)[O]C1=O [oxaliplatin] | 99 | 
CC(=O)[O][Pt]([NH2])([NH2])([Cl])([Cl])[O]C(C)=O [cisPt(IV)-1] |  | remained intact
